Reference: ChEMBL document CHEMBL1201862, “PubChem BioAssay data set” (2004)
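Dose response: 5 concentrations. Exposure: 48 h. Format: 96-well plates. Endpoint: linear interpolation; highest concentration if not reached. GI50 = concentration required for 50% inhibition of growth.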 Active and inactive are the calls of the source. Rule as the data show it: active = GI50 up to about 1.1 µM and inactive = higher.

Assays:
Assay in all cases: DTP human tumour cell line panel, 48 h
OVCAR-8 = tested on: OVCAR-8
NCI-H226 = tested on: NCI-H226
Malme-3M = tested on: Malme-3M
UACC-62 = tested on: UACC-62
LOX IMVI = tested on: LOX IMVI
A549 = tested on: A549
HL-60 = tested on: HL-60
HT-29 = tested on: HT-29
786-0 = tested on: 786-0
TK-10 = tested on: TK-10
SF-295 = tested on: SF-295
KM12 = tested on: KM12
A498 = tested on: A498
ACHN = tested on: ACHN
EKVX = tested on: EKVX
SF-268 = tested on: SF-268

Measured: GI50

N#Cc1sc2nc3c(c(-c4ccccc4)c2c1N)CCCC3
inactive: OVCAR-8 > 100 µM | NCI-H226 > 100 µM | Malme-3M > 100 µM | UACC-62 > 100 µM | LOX IMVI 48 µM | A549 > 100 µM | HL-60 > 100 µM | HT-29 > 100 µM | 786-0 46 µM | TK-10 > 100 µM | SF-295 22.1 µM | KM12 > 100 µM | A498 > 100 µM | ACHN 76.9 µM

O=C(O)\C=C/C=C/C=C/C=C/C(=O)O
inactive: OVCAR-8 > 100 µM | NCI-H226 > 100 µM | Malme-3M > 100 µM | UACC-62 90.4 µM | LOX IMVI > 100 µM | A549 > 100 µM | HL-60 > 100 µM | HT-29 > 100 µM | 786-0 > 100 µM | EKVX > 100 µM | SF-268 > 100 µM | SF-295 > 100 µM | KM12 > 100 µM | A498 > 100 µM | ACHN > 100 µM

CC12C=C[C@]3(CC[C@@H]4[C@@](C)(CO)CCC[C@]4(C)C3CC1)C2 (some centres not stated)
inactive: OVCAR-8 21.4 µM | Malme-3M 20.5 µM | UACC-62 15.8 µM | LOX IMVI 15.6 µM | A549 18.2 µM | HL-60 17.9 µM | HT-29 17.8 µM | 786-0 16 µM | TK-10 20.1 µM | EKVX 24.8 µM | SF-268 17.9 µM | SF-295 19.5 µM | KM12 > 44.9 µM | A498 22.9 µM | ACHN 18.1 µM

Nc1ccc(/C=C/c2ccnc3ccccc23)cc1
inactive: OVCAR-8 21.8 µM | NCI-H226 17.7 µM | Malme-3M 30.3 µM | UACC-62 23.4 µM | A549 19.4 µM | HL-60 3.24 µM | HT-29 23.4 µM | 786-0 18.6 µM | TK-10 17.4 µM | SF-268 16.5 µM | SF-295 16.1 µM | KM12 16.2 µM | ACHN 19.2 µM

N#CCC(=O)Nc1ccccc1O
inactive: OVCAR-8 > 100 µM | NCI-H226 > 100 µM | Malme-3M > 100 µM | UACC-62 > 100 µM | A549 > 100 µM | HL-60 > 100 µM | HT-29 > 100 µM | 786-0 > 100 µM | TK-10 > 100 µM | EKVX > 100 µM | SF-268 > 100 µM | SF-295 > 100 µM | KM12 > 100 µM | A498 > 100 µM | ACHN > 100 µM

CC(c1ccccc1)N1O[C@]12CC[C@@]1(C)C(CCCC13OCCO3)C2 (some centres not stated)
inactive: OVCAR-8 16.7 µM | NCI-H226 > 100 µM | Malme-3M 32.1 µM | UACC-62 19.6 µM | LOX IMVI 11.8 µM | A549 24.5 µM | HT-29 21.7 µM | 786-0 19.4 µM | TK-10 18.3 µM | SF-268 43.6 µM | SF-295 22 µM | KM12 21.3 µM | ACHN 16.5 µM

c1ccc(COc2cccc3cccnc23)cc1
inactive: OVCAR-8 > 100 µM | NCI-H226 > 100 µM | Malme-3M 48.4 µM | UACC-62 95.9 µM | LOX IMVI 54.5 µM | A549 > 100 µM | HL-60 19.9 µM | HT-29 80.9 µM | 786-0 > 100 µM | TK-10 > 100 µM | EKVX 83.9 µM | SF-268 28.4 µM | SF-295 > 100 µM | KM12 61.4 µM | ACHN > 100 µM

Nc1cc2c(C3OC(CO)C(O)C3O)n[nH]c2c(=S)[nH]1 (configuration not stated)
inactive: OVCAR-8 > 100 µM | NCI-H226 > 100 µM | Malme-3M > 100 µM | UACC-62 > 100 µM | A549 > 100 µM | HL-60 41.2 µM | HT-29 > 100 µM | 786-0 > 100 µM | EKVX > 100 µM | SF-268 > 100 µM | SF-295 > 100 µM | KM12 > 100 µM | A498 > 100 µM | ACHN > 100 µM

O=C1/C(=C/c2ccccc2Cl)COc2ccc(Br)cc21
inactive: OVCAR-8 56.9 µM | Malme-3M > 100 µM | LOX IMVI > 100 µM | A549 97.3 µM | HL-60 18.5 µM | HT-29 > 100 µM | 786-0 37.4 µM | TK-10 > 100 µM | EKVX > 100 µM | SF-268 > 100 µM | SF-295 37.6 µM | KM12 22.4 µM | A498 > 100 µM | ACHN > 100 µM

CC1=NN(C(=O)CC(=O)NC(=O)CC(=O)Nc2ccccc2F)C(=O)C1/N=N/c1ccc([N+](=O)[O-])cc1 (configuration not stated)
inactive: OVCAR-8 47.6 µM | NCI-H226 33.1 µM | Malme-3M 39 µM | UACC-62 55.3 µM | LOX IMVI 19.6 µM | A549 35 µM | HT-29 19.8 µM | 786-0 27.7 µM | TK-10 44.1 µM | EKVX 35.1 µM | SF-268 82.2 µM | SF-295 37.2 µM | KM12 56.1 µM | A498 34.3 µM | ACHN 30.1 µM

CC1=C(C(=O)Nc2ccc(Cl)c(Cl)c2)C(c2ccco2)C(C(=O)Nc2ccc(Cl)c(Cl)c2)=C(C)N1
inactive: OVCAR-8 11.2 µM | NCI-H226 12.5 µM | Malme-3M 14.8 µM | UACC-62 12.9 µM | A549 12.5 µM | HL-60 19.3 µM | HT-29 14.4 µM | 786-0 13 µM | TK-10 6.44 µM | EKVX 14.9 µM | SF-268 11.4 µM | SF-295 7.91 µM | KM12 13.4 µM | A498 12.8 µM | ACHN 5 µM

COC1OC(C)C(OCc2ccccc2)C(OS(=O)(=O)c2ccc(C)cc2)C1OS(=O)(=O)c1ccc(C)cc1 (configuration not stated)
inactive: OVCAR-8 > 100 µM | NCI-H226 > 100 µM | Malme-3M > 100 µM | A549 > 100 µM | HL-60 > 100 µM | HT-29 > 100 µM | 786-0 > 100 µM | EKVX > 100 µM | SF-268 > 100 µM | SF-295 > 100 µM | KM12 > 100 µM | ACHN > 100 µM

O=c1nc2sc3ccc4ccccc4c3n2nc1O
inactive: OVCAR-8 94.6 µM | NCI-H226 30.5 µM | UACC-62 46.7 µM | A549 > 100 µM | HL-60 > 100 µM | HT-29 47.9 µM | 786-0 > 10 µM | TK-10 > 100 µM | EKVX 60 µM | SF-268 40.4 µM | SF-295 59.4 µM | KM12 > 100 µM

Cc1ccc(C)c(N2C(=O)C(=O)C(c3nc4ccccc4s3)/C(=N/NC(=O)NN)C2=O)c1 (configuration not stated)
inactive: OVCAR-8 > 100 µM | NCI-H226 > 100 µM | Malme-3M > 100 µM | UACC-62 > 100 µM | A549 > 100 µM | HL-60 > 100 µM | HT-29 > 100 µM | 786-0 > 100 µM | TK-10 > 100 µM | EKVX > 100 µM | SF-268 > 100 µM | SF-295 > 100 µM | KM12 > 100 µM | A498 > 100 µM | ACHN > 100 µM
